Series [1] concerns PC-3. The series is described as follows: Prostate cancer cell cytotoxicity, crystal violet assay, PC-3. It counts as cell-based, human. Conditions: 3 h drug. The method, then:
Toxicity to the three prostate cancer cell lines, LNCaP, DU-145, and PC-3 were measured in two different media, RPMI-1640 and DMEM (Dulbecco's Modified Eagle Medium), both supplemented with 10% fetal bovine serum.
Cell lines were maintained in vitro in RPMI 1640 media or DMEM, each supplemented with 10% fetal bovine serum, 2 mM L-glutamine, 10 mM HEPES buffer, penicillin (100 units/mL) and streptomycin (100 μg/mL).
Cells were dissociated with trypsin/EDTA, counted, and suspended in growth media (RPMI or DMEM) to a concentration of 5.6×10^3 cells/mL. Cell suspensions were dispensed in 180 μL aliquots into 96-well tissue culture plates. […] Each 100× solution was diluted 10× in growth media (RPMI or DMEM), and a 20 μL aliquot of the resulting 10× solution was immediately (<10s) added to-the appropriate lane. Additionally, one lane was treated with 20 μL of 10% DMSO in growth media (no drug) and one lane was treated with 200 μL of 1.5 M Tris buffer (no cells). The cells were incubated with the drugs for 3 h at 37° C. The drug solutions were then removed and replaced with 200 μL of fresh media. The cells were incubated for 4 days (7 days for PC-3 cells in DMEM) at 37° C. in a humidified atmosphere of 5% CO2 and 95% air. Cell survival was determined using a crystal violet assay as described earlier (Fenick, D. J. et al (1997) J. Med. Chem. 40: 2452-2461).

For series [2] the following is noted: amorphous material.

Where two headings read alike, the source gives them in different places.

In the case of `COc1cccc2c1C(=O)c1c(O)c3c(c(O)c1C2=O)C[C@@](O)(C(C)=O)C[C@@H]3O[C@H]1C[C@H]2[C@H](OCN2CN2CO[C@@H]3[C@H](C)O[C@@H](O[C@H]4C[C@](O)(C(C)=O)Cc5c(O)c6c(c(O)c54)C(=O)c4c(OC)cccc4C6=O)C[C@@H]32)[C@H](C)O1` [DAUNF, bis(3′-N-(3′-N,4′-O-methylenedaunorubicinyl))methane], the IC50 was 0.5 nM in series [1] (DMEM with 10% fetal bovine serum, 7 days growth, read-out: IC50 Values, PC-3/DMEM (converted)) and 2.5 nM in series [1] (RPMI-1640 with 10% fetal bovine serum, 4 days growth, read-out: IC50 Values, PC-3/RPMI-1640 (converted)). Further, the “concentration to which the material dissolved instantly in dimethylsulfoxide” value in series [2] is at least 20000 µg/mL.

Source of the values: patent publication US6677309B1, “Anti-cancer drug aldehyde conjugate drugs with enhanced cytotoxicity compounds, compositions and methods” (University Technology Corporation, priority 1997, dated 2004).
